Source: paper PMC3225262, “PeptX: Using Genetic Algorithms to optimize peptides for MHC binding” (BMC Bioinformatics, 2011)
Where no end group is shown, it is not given here.

biological target: HLA-A*02:01 (Homo sapiens, UniProt P04439, D140Y/D185E/D98H/E176V/E277Q/G131W/G231S/I119V/I121R/I166T/I218V/L300P/L318F/N151K/N90K/P208A/P217A/Q86G/Q94H/R138H/R169H/T345S); test: experimental peptide/MHC binding assay of the consensus peptides; conditions: consensus peptides optimized for HLA-A*02:01; values below 0.5 nM are beyond the range of sensitivity of the assay; tested by co-operation partner (J. Sidney); read-out: experimental peptide/MHC binding affinity expressed as IC50
From the text: Since a validation on the basis of existing public experimental data was not possible we were able to find a co-operation partner who tested our consensus peptides for experimental peptide/MHC binding affinity.
The authors thank J. Sidney for testing the IC50 binding affinities of the consensus peptides.

Sequence	IC50 [nM]
YLAEGLASL [YLAEGLASL]	1.3
MLWTMVFTV [MLWTMVFTV]	< 0.5

Further lines, results first:

IC50 [nM]	Sequence
< 0.5	YMMEWMWYV [YMMEWMWYV]
1.1	FLWEVTPTV [FLWEVTPTV]
45	WWWFFWYVW [WWWFFWYVW]
